From patent US5616615A, “Enaminone esters” (priority 1995, dated 1997) come the findings set out here.

Data set [1] deals with Maximal electroshock seizures. Put plainly: MES maximal electroshock seizure test, mice ip. In kind it is in vivo. To be noted: for responders at 100 mg/kg / responders at 300 mg/kg / responders at 10 mg/kg: Mus musculus, ip; for responders at 100 mg/kg / responders at 10 mg/kg: read-out: MES, animals protected/tested (converted); for responders at 300 mg/kg: read-out: MES, animals protected/tested; for responders at 10 mg/kg: mice ip; for anti-MES protecting ability: Phase I. The method, then:
Three tests were performed:
1. MES--Electroshock Seizure Test
(§1) Maximal electroshock seizures are elicited with a 60-cycle alternating current of 50 mA intensity (5-7 times that necessary to elicit minimal electroshock seizures) delivered via corneal electrodes for 0.2 seconds. A drop of 0.9% saline is instilled in the eye prior to application of the electrodes in order to […].
For orientation: The maximal electroshock test induces tonic seizures with an electrical stimulus.

Data set [2] relates to Subcutaneous Pentylenetetrazol seizure. Put plainly: sc Met subcutaneous pentylenetetrazol (Metrazol) seizure test, mice. The class given is in vivo. To be noted: Mus musculus, sc, read-out: scMet, animals protected/tested (converted).
Experimental: 2. sc Met--Subcutaneous Pentylenetetrazol (Metrazol^R) Seizure Test
The animal is observed for 30 minutes. Failure to observe even a threshold seizure (a single episode of clonic spasms of at least 5 seconds duration) is defined as protection and the results are expressed as the number of animals protected/the number of animals tested.
The test system of data set [3] is Maximal electroshock seizures. Put plainly: Phase VI oral MES test, rats. As to conditions: oral; for responders at 50 mg/kg: Rattus norvegicus, read-out: MES, animals protected/tested (converted). In kind it is in vivo.
Text: as §1
(§2) This oral screen is designated as phase VI.

Data set [4] is described as follows: in vivo. As to conditions: rat, po; for Tox, animals toxic/tested: 50 mg/kg.
Text: as §2

The test system of data set [5] is seizures. Description: Anticonvulsant evaluation (ASP phase I / overall). The class given is in vivo, mice. As to conditions: for minimal effective dose: Mus musculus, ip, Phase I, read-out: ASP Classification. The method, then: The first phase of the ADD Program involved performing tests on male Carworth Farms #1 mice. […] Three tests were performed:
as §1
The animal is observed for 30 minutes.

Read-outs that look alike come from different tables or passages of the source.

As to `CC1(C)CC(=O)C=C(Nc2ccc([N+](=O)[O-])cc2)C1` [Compound 138], the responders at 100 mg/kg in data set [1] (0.5 h, 30 min) is 33.3%; in data set [1] (4 h, 4 h), 0%; in data set [2] (0.5 h, 30 min), 0%; in data set [2] (4 h, 4 h) it was 0%. In addition, the responders at 300 mg/kg was 100% in data set [1] (0.5 h, 30 min); 0% in data set [1] (4 h, 4 h); 0% in data set [2] (0.5 h, 30 min); 0% in data set [2] (4 h, 4 h). Besides, the responders at 50 mg/kg in data set [3] (0.5 h, 0.50 h) was 0%; in data set [3] (0.25 h), 0%; in data set [3] (1.00 h) it was 0%; in data set [3] (2.00 h) it was 50%; in data set [3] (4.00 h), 0%. The “Tox, animals toxic/tested” value in data set [4] is listed as 0/4. Moreover, the minimal effective dose in data set [5] is under 100 mg/kg.
For `COC(=O)C1C(=O)C=C(Nc2ccc(Cl)cn2)CC1C` (centres unmarked) [Compound 116], the responders at 10 mg/kg is 75% in data set [1] (0.25 h, 0.25 h); 100% in data set [1] (0.5 h, 0.50 h); 50% in data set [1] (1 h, 1.00 h); 0% in data set [1] (2 h, 2.00 h); 0% in data set [1] (4 h, 4.00 h). In addition, the responders at 100 mg/kg in data set [1] (0.5 h, 30 min) is 66.7%; in data set [1] (4 h, 4 h) it was 0%; in data set [2] (0.5 h, 30 min), 0%; in data set [2] (4 h, 4 h) it was 0%. The responders at 300 mg/kg in data set [1] (0.5 h, 30 min) is 100%; in data set [1] (4 h, 4 h), 0%; in data set [2] (0.5 h, 30 min, second trial) it was 75%; in data set [2] (0.5 h, 30 min), 100%; in data set [2] (4 h, 4 h) it was 0%. Also, in data set [1], the “anti-MES protecting ability” value is listed as “showed anti-MES protecting ability”. Moreover, the responders at 50 mg/kg was 100% in data set [3] (0.5 h, 0.50 h); 100% in data set [3] (0.25 h); 100% in data set [3] (1.00 h); 100% in data set [3] (2.00 h); 100% in data set [3] (4.00 h). In data set [4], the “Tox, animals toxic/tested” value is 0/4. The minimal effective dose in data set [5] is under 100 mg/kg.
`O=C1C=C(Nc2ccc(C(F)(F)F)cc2)CCC1` [Compound 151]: the responders at 100 mg/kg in data set [1] (0.5 h, 30 min) was 100%; in data set [1] (4 h, 4 h), 0%; in data set [2] (0.5 h, 30 min), 0%; in data set [2] (4 h, 4 h), 0%. For the same compound, the responders at 300 mg/kg in data set [1] (0.5 h, 30 min) was 100%; in data set [1] (4 h, 4 h) it was 100%; in data set [2] (0.5 h, 30 min) it was 0%; in data set [2] (4 h, 4 h), 0%. In addition, the responders at 50 mg/kg in data set [3] (0.5 h, 0.50 h) was 25%; in data set [3] (0.25 h) it was 75%; in data set [3] (1.00 h) it was 25%; in data set [3] (2.00 h), 50%; in data set [3] (4.00 h), 0%. Moreover, the “Tox, animals toxic/tested” value in data set [4] is on record as 0/4. Further, in data set [5], the minimal effective dose is under 100 mg/kg.
Consider `CCOC(=O)C1C(=O)C=C(Nc2ccc(C)cc2)CC1C` (centres unmarked) [Compound 125], for which the responders at 10 mg/kg in data set [1] (0.25 h, 0.25 h) was 25%; in data set [1] (0.5 h, 0.50 h), 0%; in data set [1] (1 h, 1.00 h) it was 25%; in data set [1] (2 h, 2.00 h) it was 0%; in data set [1] (4 h, 4.00 h), 0%. Also, the responders at 100 mg/kg in data set [1] (0.5 h, 30 min) is 33.3%; in data set [1] (4 h, 4 h), 0%; in data set [2] (0.5 h, 30 min), 0%; in data set [2] (4 h, 4 h), 0%. The responders at 300 mg/kg in data set [1] (0.5 h, 30 min) is 100%; in data set [1] (4 h, 4 h), 0%; in data set [2] (0.5 h, 30 min) it was 0%; in data set [2] (4 h, 4 h) it was 0%. Further, in data set [1], the “anti-MES protecting ability” value is on record as “showed anti-MES protecting ability”. Further, the responders at 50 mg/kg in data set [3] (0.5 h, 0.50 h) was 100%; in data set [3] (0.25 h), 100%; in data set [3] (1.00 h), 100%; in data set [3] (2.00 h), 100%; in data set [3] (4.00 h) it was 100%. Moreover, the “Tox, animals toxic/tested” value in data set [4] is recorded as 0/4. In addition, the minimal effective dose in data set [5] was under 100 mg/kg.
For `CC1CC(=O)C=C(Nc2ccc(Cl)cc2)C1` (centres unmarked) [Compound 146, 3-[(p-Chlorophenyl)amino]-5-methyl-2-cyclohexen-1-one], the responders at 100 mg/kg in data set [1] (0.5 h, 30 min) is 100%; in data set [1] (4 h, 4 h), 0%; in data set [2] (0.5 h, 30 min) it was 0%; in data set [2] (4 h, 4 h) it was 0%. The responders at 300 mg/kg in data set [1] (0.5 h, 30 min) was 100%; in data set [1] (4 h, 4 h) it was 100%; in data set [2] (0.5 h, 30 min) it was 40%; in data set [2] (4 h, 4 h), 0%. The responders at 50 mg/kg was 75% in data set [3] (0.5 h, 0.50 h); 25% in data set [3] (0.25 h); 100% in data set [3] (1.00 h); 100% in data set [3] (2.00 h); 50% in data set [3] (4.00 h). In addition, the “Tox, animals toxic/tested” value in data set [4] was 0/4. In addition, in data set [5], the minimal effective dose was under 100 mg/kg.
Consider `CCOC(=O)C1C(=O)C=C(Nc2ccc(C(C)(C)C)cc2)CC1C` (centres unmarked) [Compound 130], for which the responders at 10 mg/kg was 100% in data set [1] (0.25 h, 0.25 h); 75% in data set [1] (0.5 h, 0.50 h); 50% in data set [1] (1 h, 1.00 h); 0% in data set [1] (2 h, 2.00 h); 0% in data set [1] (4 h, 4.00 h). Also, the responders at 100 mg/kg in data set [1] (0.5 h, 30 min) is 33.3%; in data set [1] (4 h, 4 h), 0%; in data set [2] (0.5 h, 30 min) it was 0%; in data set [2] (4 h, 4 h) it was 0%. Further, the responders at 300 mg/kg was 100% in data set [1] (0.5 h, 30 min); 0% in data set [1] (4 h, 4 h); 0% in data set [2] (0.5 h, 30 min); 0% in data set [2] (4 h, 4 h). Also, the “anti-MES protecting ability” value in data set [1] was “showed anti-MES protecting ability”. For the same compound, the responders at 50 mg/kg in data set [3] (0.5 h, 0.50 h) was 25%; in data set [3] (0.25 h) it was 25%; in data set [3] (1.00 h), 50%; in data set [3] (2.00 h), 75%; in data set [3] (4.00 h) it was 25%. In data set [4], the “Tox, animals toxic/tested” value was 0/4. The minimal effective dose in data set [5] was under 100 mg/kg.
Consider `COC(=O)C1C(=O)C=C(NCCc2ccccc2)CC1C` (centres unmarked) [Compound 109], for which the responders at 100 mg/kg in data set [1] (0.5 h, 30 min) is 66.7%; in data set [1] (4 h, 4 h), 0%; in data set [2] (0.5 h, 30 min) it was 0%; in data set [2] (4 h, 4 h), 0%. Also, the responders at 300 mg/kg was 100% in data set [1] (0.5 h, 30 min); 0% in data set [1] (4 h, 4 h); 0% in data set [2] (0.5 h, 30 min); 0% in data set [2] (4 h, 4 h). Moreover, the responders at 50 mg/kg in data set [3] (0.5 h, 0.50 h) was 50%; in data set [3] (0.25 h), 100%; in data set [3] (1.00 h), 50%; in data set [3] (2.00 h) it was 25%; in data set [3] (4.00 h), 25%. Further, in data set [4], the “Tox, animals toxic/tested” value is reported as 0/4. In data set [5], the minimal effective dose is under 100 mg/kg.
As for `O=C1C=C(Nc2ccc(Cl)cc2)CCC1` [Compound 147], the responders at 100 mg/kg in data set [1] (0.5 h, 30 min) was 100%; in data set [1] (4 h, 4 h), 0%; in data set [2] (0.5 h, 30 min), 0%; in data set [2] (4 h, 4 h), 0%. Moreover, the responders at 300 mg/kg in data set [1] (0.5 h, 30 min) is 100%; in data set [1] (4 h, 4 h) it was 100%; in data set [2] (0.5 h, 30 min) it was 0%; in data set [2] (4 h, 4 h), 0%. Moreover, the responders at 50 mg/kg was 100% in data set [3] (0.5 h, 0.50 h); 75% in data set [3] (0.25 h); 50% in data set [3] (1.00 h); 25% in data set [3] (2.00 h); 25% in data set [3] (4.00 h). For the same compound, in data set [4], the “Tox, animals toxic/tested” value is given as 0/4. Further, in data set [5], the minimal effective dose was under 100 mg/kg.
The term ED50 denotes the midpoint of the dose-response relation. Low values mean an effect at a small dose, high ones a need for a large dose. On to `COC(=O)C1C(=O)C=C(NCc2ccc(F)cc2)CC1C` (centres unmarked) [Compound 21], for which the responders at 300 mg/kg was 0% in data set [1] (0.5 h, 30 min); 100% in data set [1] (4 h, 4 h); 0% in data set [2] (0.5 h, 30 min); 0% in data set [2] (4 h, 4 h). In addition, in data set [1] (substituted benzylamines), the “activity in Phase II evaluation” value is “significant activity”. Besides, the ED50 in data set [3] (Phase VI, rat) amounted to 49.3 mg/kg. The responders at 50 mg/kg in data set [3] (0.5 h, 0.50 h) is 50%; in data set [3] (0.25 h), 50%; in data set [3] (1.00 h), 25%; in data set [3] (2.00 h) it was 50%; in data set [3] (4.00 h), 75%. Moreover, the TD50 in data set [4] was over 230 mg/kg. For the same compound, the selectivity ratio in data set [4] stood at 4.7. In addition, in data set [4], the “Tox, animals toxic/tested” value is on record as 0/4. The minimal effective dose in data set [5] is over 100 mg/kg. The “activity compared with 12” value in data set [5] (substituted benzylamines) was “only a slight modification in activity”.
